In the supplement of paper PMC10307832:

Columns and labels:
Assay in all cases: relative viability (nuclei count vs DMSO), 5 days (fraction); higher = more cells survive
Bosutinib + Trametinib = compound: COc1cc(Nc2c(C#N)cnc3cc(OCCCN4CCN(C)CC4)c(OC)cc23)c(Cl)cc1Cl [Bosutinib] + CC(=O)Nc1cccc(-n2c(=O)n(C3CC3)c(=O)c3c(Nc4ccc(I)cc4F)n(C)c(=O)c(C)c32)c1 [Trametinib] (partner 0.02 µM)
Procedure, shortened: (§1)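 Relative viability is defined as nuclei in treated wells over nuclei in vehicle wells. Duplicate plates were run and medians reported. Lung cancer cell lines in 1536-well plates were dosed by pin tool one day after seeding, with one drug or with a fixed anchor-drug dose plus five library-drug doses (not always all listed) in √10 steps, and nuclei were counted after 5 days.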

Bosutinib + Navitoclax = compound: COc1cc(Nc2c(C#N)cnc3cc(OCCCN4CCN(C)CC4)c(OC)cc23)c(Cl)cc1Cl [Bosutinib] + CC1(C)CCC(c2ccc(Cl)cc2)=C(CN2CCN(c3ccc(C(=O)NS(=O)(=O)c4ccc(N[C@H](CCN5CCOCC5)CSc5ccccc5)c(S(=O)(=O)C(F)(F)F)c4)cc3)CC2)C1 [Navitoclax] (partner 0.5 µM)
Procedure, shortened: as §1

Bosutinib + OSI-027 = compound: COc1cc(Nc2c(C#N)cnc3cc(OCCCN4CCN(C)CC4)c(OC)cc23)c(Cl)cc1Cl [Bosutinib] + COc1cccc2cc(-c3nc([C@H]4CC[C@H](C(=O)O)CC4)n4ncnc(N)c34)[nH]c12 [OSI-027] (partner 0.5 µM)
Procedure, shortened: as §1

Bosutinib + Tozasertib = compound: COc1cc(Nc2c(C#N)cnc3cc(OCCCN4CCN(C)CC4)c(OC)cc23)c(Cl)cc1Cl [Bosutinib] + Cc1cc(Nc2cc(N3CCN(C)CC3)nc(Sc3ccc(NC(=O)C4CC4)cc3)n2)n[nH]1 [Tozasertib] (partner 0.1 µM)
Procedure, shortened: as §1

Bosutinib + Olaparib = compound: COc1cc(Nc2c(C#N)cnc3cc(OCCCN4CCN(C)CC4)c(OC)cc23)c(Cl)cc1Cl [Bosutinib] + O=C(c1cc(Cc2n[nH]c(=O)c3ccccc23)ccc1F)N1CCN(C(=O)C2CC2)CC1 [Olaparib] (partner 8 µM)
Procedure, shortened: as §1

Row | Cell Line | relative viability (Bosutinib + Trametinib; first compound 0.01 µM) | relative viability (Bosutinib + Trametinib; first compound 0.03162 µM) | relative viability (Bosutinib + Trametinib; first compound 0.1 µM) | relative viability (Bosutinib + Trametinib; first compound 1 µM) | relative viability (Bosutinib + Navitoclax; first compound 0.01 µM) | relative viability (Bosutinib + Navitoclax; first compound 0.03162 µM) | relative viability (Bosutinib + Navitoclax; first compound 0.1 µM) | relative viability (Bosutinib + Navitoclax; first compound 1 µM) | relative viability (Bosutinib + OSI-027; first compound 0.01 µM) | relative viability (Bosutinib + OSI-027; first compound 0.03162 µM) | relative viability (Bosutinib + OSI-027; first compound 0.1 µM) | relative viability (Bosutinib + OSI-027; first compound 1 µM) | relative viability (Bosutinib + Tozasertib; first compound 0.01 µM) | relative viability (Bosutinib + Tozasertib; first compound 0.03162 µM) | relative viability (Bosutinib + Tozasertib; first compound 0.1 µM) | relative viability (Bosutinib + Tozasertib; first compound 1 µM) | relative viability (Bosutinib + Olaparib; first compound 0.01 µM) | relative viability (Bosutinib + Olaparib; first compound 0.03162 µM) | relative viability (Bosutinib + Olaparib; first compound 0.1 µM) | relative viability (Bosutinib + Olaparib; first compound 1 µM)
1 | NCI-H1666 | 0.888 | 0.774 | 0.832 | 0.842 | 1 | 1.01 | 0.889 | 0.892 | 0.773 | 0.811 | 0.821 | 1.03 | 0.57 | 0.626 | 0.629 | 0.662 | 0.713 | 0.701 | 0.756 | 0.794
2 | NCI-H1734 | 0.693 | 0.711 | 0.726 | 0.591 | 0.808 | 0.827 | 0.853 | 0.737 | 0.584 | 0.609 | 0.684 | 0.538 | 0.245 | 0.242 | 0.245 | 0.248 | 0.629 | 0.62 | 0.584 | 0.488
3 | NCI-H1755 | 0.706 | 0.798 | 0.856 | 0.76 | 0.971 | 1.02 | 1.04 | 0.925 | 0.786 | 0.853 | 0.803 | 0.663 | 0.585 | 0.736 | 0.605 | 0.5 | 0.874 | 0.998 | 0.861 | 0.885
4 | NCI-H1793 | 0.383 | 0.394 | 0.454 | 0.298 | 0.466 | 0.479 | 0.456 | 0.263 | 0.254 | 0.276 | 0.262 | 0.23 | 0.363 | 0.404 | 0.373 | 0.23 | 0.815 | 0.804 | 0.755 | 0.539
5 | NCI-H1915 | 0.306 | 0.291 | 0.295 | 0.253 | 0.802 | 0.824 | 0.823 | 0.81 | 0.646 | 0.671 | 0.71 | 0.669 | 0.438 | 0.449 | 0.429 | 0.419 | 0.259 | 0.256 | 0.258 | 0.26
6 | NCI-H1944 | 0.415 | 0.45 | 0.394 | 0.327 | 1.06 | 1.08 | 1.04 | 0.956 | 0.436 | 0.412 | 0.379 | 0.374 | 0.275 | 0.262 | 0.258 | 0.19 | 0.411 | 0.384 | 0.417 | 0.433
7 | NCI-H1975 | 0.29 | 0.329 | 0.42 | 0.322 | 1 | 1.06 | 1.1 | 0.991 | 0.735 | 0.761 | 0.697 | 0.534 | 0.739 | 0.871 | 0.687 | 0.583 | 0.71 | 0.784 | 0.794 | 0.56
